Measured values: ChEMBL document CHEMBL2331218, “Synthesis, biological evaluation, 3D-QSAR studies of novel aryl-2H-pyrazole derivatives as telomerase inhibitors” (Bioorg Med Chem Lett, 2013)
pIC50: −log10 of the molar value.

Columns and labels:
[1] = biological target: Telomerase reverse transcriptase (Homo sapiens, UniProt O14746); experiment: Inhibition of telomerase in human SGC7901 cells by TRAP assay; type: cell-based, SGC-7901
SGC-7901 = experiment: Anticancer activity against human SGC7901 cells assessed as cell survival measured after 48 hrs by MTT assay; type: functional, cell-based; conditions: SGC-7901, 48 h
B16-F10 = experiment: Anticancer activity against mouse B16F10 cells assessed as cell survival measured after 48 hrs by MTT assay; type: functional, cell-based; conditions: B16-F10, 48 h

Telomerase reverse transcriptase, sequence (O14746 whole entry): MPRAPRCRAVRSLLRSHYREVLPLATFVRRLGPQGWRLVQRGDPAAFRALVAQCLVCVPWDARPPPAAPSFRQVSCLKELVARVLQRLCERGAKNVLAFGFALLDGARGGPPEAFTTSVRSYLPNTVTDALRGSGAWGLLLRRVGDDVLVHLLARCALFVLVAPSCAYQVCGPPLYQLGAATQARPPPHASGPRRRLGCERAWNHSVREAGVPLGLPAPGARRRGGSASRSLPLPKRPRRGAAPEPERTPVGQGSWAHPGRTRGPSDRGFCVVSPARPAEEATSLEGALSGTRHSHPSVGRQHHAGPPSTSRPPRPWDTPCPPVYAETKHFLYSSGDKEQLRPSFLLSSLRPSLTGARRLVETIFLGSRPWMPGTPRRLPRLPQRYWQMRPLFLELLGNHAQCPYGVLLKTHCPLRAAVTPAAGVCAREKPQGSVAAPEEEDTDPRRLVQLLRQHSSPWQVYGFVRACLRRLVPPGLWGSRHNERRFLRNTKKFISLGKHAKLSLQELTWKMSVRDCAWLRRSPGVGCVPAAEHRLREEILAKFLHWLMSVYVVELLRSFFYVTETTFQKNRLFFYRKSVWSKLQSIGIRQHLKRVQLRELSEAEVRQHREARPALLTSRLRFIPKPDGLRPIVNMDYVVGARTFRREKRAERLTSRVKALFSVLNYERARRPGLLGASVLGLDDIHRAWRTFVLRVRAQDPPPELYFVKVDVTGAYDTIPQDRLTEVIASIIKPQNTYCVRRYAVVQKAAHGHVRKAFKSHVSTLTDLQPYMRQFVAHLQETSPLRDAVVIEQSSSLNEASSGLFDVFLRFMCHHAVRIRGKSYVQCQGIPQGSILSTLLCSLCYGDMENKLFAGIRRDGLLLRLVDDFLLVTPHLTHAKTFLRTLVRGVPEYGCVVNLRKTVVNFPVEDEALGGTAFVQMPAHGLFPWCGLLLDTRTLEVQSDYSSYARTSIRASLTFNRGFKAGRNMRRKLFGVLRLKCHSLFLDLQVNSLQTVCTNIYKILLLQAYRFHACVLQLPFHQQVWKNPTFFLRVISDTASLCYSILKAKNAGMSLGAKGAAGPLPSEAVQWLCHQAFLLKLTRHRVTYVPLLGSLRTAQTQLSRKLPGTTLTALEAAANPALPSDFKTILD

SMILES	pIC50 [1]	pIC50 (SGC-7901)	pIC50 (B16-F10)
CC(=O)N1N=C(c2ccc(Cl)cc2)CC1c1ccc2c(c1)OCCCO2 (stereo not given)	4.08	–	–
CC(=O)N1N=C(c2ccccc2)CC1c1ccc2c(c1)OCO2 (stereo not given)	5.47	4.59	4.86
O=c1[nH]cc(F)c(=O)[nH]1 [FLUOROURACIL]	–	4.33	4.67
CC(=O)N1N=C(c2ccccc2)CC1c1ccc2c(c1)OCCCO2 (stereo not given)	4.17	–	–
CC(=O)N1N=C(c2ccc(F)cc2)CC1c1ccc2c(c1)OCCCO2 (stereo not given)	4.08	–	–
COc1ccc(C2=NN(C(C)=O)C(c3ccc4c(c3)OCCCO4)C2)cc1 (stereo not given)	4.33	4.03	4.07
CC(=O)N1N=C(c2ccc(C)cc2)CC1c1ccc2c(c1)OCCCO2 (stereo not given)	4.26	–	4.05
CC(=O)N1N=C(c2ccc([N+](=O)[O-])cc2)CC1c1ccc2c(c1)OCCCO2 (stereo not given)	4.03	–	–
CC(=O)N1N=C(c2ccc(Br)cc2)CC1c1ccc2c(c1)OCCCO2 (stereo not given)	4.12	–	4.01
CC(=O)N1N=C(c2ccc(F)cc2)CC1c1ccc2c(c1)OCCO2 (stereo not given)	4.59	4.17	4.27
CC(=O)N1N=C(c2ccc(C)cc2)CC1c1ccc2c(c1)OCO2 (stereo not given)	5.89	4.67	4.89
CC(=O)N1N=C(c2ccc(F)cc2)CC1c1ccc2c(c1)OCO2 (stereo not given)	5.14	4.39	4.65
COc1ccc(C2=NN(C(C)=O)C(c3ccc4c(c3)OCO4)C2)cc1 (stereo not given)	6.05	4.74	5.27
CC(=O)N1N=C(c2ccc(Cl)cc2)CC1c1ccc2c(c1)OCCO2 (stereo not given)	4.62	4.23	4.32
CC(=O)N1N=C(c2ccc(C)cc2)CC1c1ccc2c(c1)OCCO2 (stereo not given)	4.87	4.31	4.42
CC(=O)N1N=C(c2ccc([N+](=O)[O-])cc2)CC1c1ccc2c(c1)OCCO2 (stereo not given)	4.43	4.15	4.24
COc1ccc(C2=NN(C(C)=O)C(c3ccc4c(c3)OCCO4)C2)cc1 (stereo not given)	4.97	4.34	4.50
CC(=O)N1N=C(c2ccc([N+](=O)[O-])cc2)CC1c1ccc2c(c1)OCO2 (stereo not given)	5.06	4.38	4.61
CC(=O)N1N=C(c2ccc(Cl)cc2)CC1c1ccc2c(c1)OCO2 (stereo not given)	5.17	4.45	4.68
CC(=O)N1N=C(c2ccccc2)CC1c1ccc2c(c1)OCCO2 (stereo not given)	4.73	4.30	4.40
CC(=O)N1N=C(c2ccc(Br)cc2)CC1c1ccc2c(c1)OCO2 (stereo not given)	5.21	4.52	4.72
CC(=O)N1N=C(c2ccc(Br)cc2)CC1c1ccc2c(c1)OCCO2 (stereo not given)	4.64	4.28	4.36
